Test results published in patent publication US12187758B2 (ROME Therapeutics, Inc., priority 2022, dated 2025).
pIC50: −log10 of the molar value.

Assays:
Type in all cases: cell-based
[1] = Mitochondria toxicity assay with PC3 cells, in-cell ELISA COX-1; conditions: 5 days treatment
Description: (§1) Exemplary compounds were tested for inhibition of expression of mitochondria DNA encoded proteins COX-1 […]. SDH-A (succinate dehydrogenase-A) is a control mitochondria protein encoded by nuclear DNA. Reduction in COX-1 expression indicates off target inhibition of mitochondria DNA synthesis which leads to mitochondrial toxicity. Assay procedures and results are described below.
(§2) PC3 cells were purchased from ATCC and cultured in F-12 Kaighn's modified medium (Hyclone), 10% heat-inactivated fetal bovine serum (Invitrogen), 1% Penicillin-Streptomycin (Invitrogen). PC3 cells were treated with a dose titration of a test compound on 96 well plates for 5 days at 37° C., 5% CO2 in a humidified incubator. The treatment plates are duplicated, one for in-cell ELISA for mitochondria proteins and one for cytotoxicity.
(§3) In-cell ELISA was performed to measure mitochondrial proteins using MitoBiogenesis In-Cell ELISA kit (Abcam) per manufacturer's instruction. The medium was aspirated from the compound treated cells, 100 μl per well of 4% paraformaldehyde (Solarbio) was added and cells were incubated at room temperature for 20 minutes. The cells were washed three times with PBS. 100 μl of 0.5% acetic acid was added per cell, and the cells were incubate at room temperature for 5 minutes. Cells were washed once with PBS. 100 μl per well of Permeabilization Buffer was added, and the cells incubate at room temperature for 30 minutes. The permeabilization buffer was removed and 200 μl per well 2× Blocking Buffer was added and the cells were incubated at room temperature for 2 hours. After removing the Blocking Buffer 100 μl per well of primary antibody to SDH-A or COX-1 was added, and the cells were incubated at 4° C. overnight. The primary antibody solution was removed and cells were washed 3 times with the Wash Buffer. 100 μl per well of AP- and HRP-labelled secondary antibodies was added, and the cells were incubated at room temperature for 1 hour. The cells were then washed 4 times with the Wash Buffer. For SDH-A detection, 100 μl per well AP Development Solution was added, and the cells were incubated at room temperature for 10 minutes. Cells were then read on CLARTO star^plus microplate reader (BMG Labtech) for kinetic readings at 405 nm for 5 minutes. […] The cells were then read on CLARTO star^plus microplate reader (BMG Labtech) for kinetic readings at 600 nm for 15 minutes.
(§4) In the table “A” represents values<1.0 μM; “B” represents values from >1.0 μM to ≤10.0 μM; “C” represents values from >10.0 μM to ≤50.0 μM; “D” represents values from >50.0 μM to ≤100.0 μM; and “E” represents values>100.0 μM.

[2] = test system: SDH-A (succinate dehydrogenase-A); experiment: Mitochondria toxicity assay with PC3 cells, in-cell ELISA SDH-A; conditions: 5 days treatment
Description: as §1, §2, §3, §4

PC3 cells = experiment: Mitochondria toxicity assay with PC3 cells, cytotoxicity (Cell Titer Glo); conditions: Homo sapiens, PC-3, 120 h, 5 days treatment
Description: as §2
For the cytotoxicity assay, the medium from the cell viability plate was removed, 50 μL per well of Cell Titer Glo (Promega, G9683) was added. Then the cells incubated for 30 minutes at room temperature. Luminescence was read by Envision (PerkinElmer 2105).
as §4

| SMILES | pIC50 [1] | pIC50 [2] | pIC50 (PC3 cells) |
| --- | --- | --- | --- |
| CO[C@]1(CO)O[C@@H](n2ccc(N)nc2=O)C[C@@H]1O [Compound 48, 4-amino-1-((2R,4S,5R)-4-hydroxy-5-(hydroxymethyl)-5-methoxytetrahydrofuran-2-yl)pyrimidin-2(1H)-one] | 5.00 to 6.00 | 5.00 to 6.00 | 4.30 to 5.00 |
| NC(=O)[C@]1(CO)O[C@@H](n2cc(F)c(N)nc2=O)[C@@H](F)[C@@H]1O [Compound 138, (2R,3R,4S,5R)-5-(4-amino-5-fluoro-2-oxopyrimidin-1-yl)-4-fluoro-3-hydroxy-2-(hydroxymethyl) oxolane-2-carboxamide] | < 4.00 | < 4.00 | < 4.00 |
| Nc1nc(=O)n([C@@H]2O[C@@](CO)(C(F)(F)F)[C@@H](O)[C@@H]2O)cc1F [Compound 95, 4-amino-1-((2R,3S,4S,5R)-3,4-dihydroxy-5-(hydroxymethyl)-5-(trifluoromethyl)tetrahydrofuran-2-yl)-5-fluoropyrimidin-2(1H)-one] | < 4.00 | < 4.00 | < 4.00 |
| Cc1cn([C@H]2C[C@H](O)[C@](CO)(N=[N+]=[N-])O2)c(=O)[nH]c1=O [Compound 30, 1-((2R,4S,5R)-5-azido-4-hydroxy-5-(hydroxymethyl)tetrahydrofuran-2-yl)-5-methylpyrimidine-2,4(1H,3H)-dione] | < 4.00 | < 4.00 | < 4.00 |
| CO[C@H]1C[C@H](n2ccc(N)nc2=O)O[C@@]1(CO)CCl [Compound 54, 4-amino-1-[(2R,4S,5R)-5-(chloromethyl)-5-(hydroxymethyl)-4-methoxyoxolan-2-yl]-3,4-dihydropyrimidin-2-one] | < 4.00 | < 4.00 | < 4.00 |
| Nc1nc2c(ncn2[C@@H]2O[C@@](CO)(CCl)[C@@H](O)[C@@H]2O)c(=O)[nH]1 [Compound 94, 2-amino-9-[(2R,3S,4S,5R)-5-(chloromethyl)-3,4-dihydroxy-5-(hydroxymethyl)oxolan-2-yl]-1H-purin-6-one] | < 4.00 | < 4.00 | < 4.00 |
| Nc1nc2c(ncn2[C@@H]2O[C@@](CO)(CF)[C@@H](O)[C@@H]2F)c(=O)[nH]1 [Compound 83, 2-amino-9-((2R,3S,4R,5R)-3-fluoro-5-(fluoromethyl)-4-hydroxy-5-(hydroxymethyl)tetrahydrofuran-2-yl)-1,9-dihydro-6H-purin-6-one] | 4.30 to 5.00 | 4.30 to 5.00 | 4.30 to 5.00 |
| CC(O)[C@]1(CO)O[C@@H](n2cc(F)c(=O)[nH]c2=O)[C@@H](F)[C@@H]1O (stereo partly drawn) [Compound 162, 5-fluoro-1-[(2R,3S,4R,5S)-3-fluoro-4-hydroxy-5-(1-hydroxyethyl)-5-(hydroxymethyl)oxolan-2-yl]-3H-pyrimidine-2,4-dione] | < 4.00 | < 4.00 | < 4.00 |
| Nc1nc(=O)n([C@@H]2O[C@](/C=C\Cl)(CO)[C@@H](O)[C@@H]2F)cc1F [Compound 132, 4-amino-1-[(2R,3S,4R,5R)-5-(2-chloroethenyl)-3-fluoro-4-hydroxy-5(Z)-(hydroxymethyl)oxolan-2-yl]-5-fluoropyrimidin-2-one] | < 4.00 | < 4.00 | < 4.00 |
| Nc1nc(=O)n([C@@H]2O[C@@](CO)(CI)[C@@H](O)[C@@H]2F)cc1F [Compound 129, 4-amino-5-fluoro-1-((2R,3S,4R,5R)-3-fluoro-4-hydroxy-5-(hydroxymethyl)-5-(iodomethyl)tetrahydrofuran-2-yl)pyrimidin-2(1H)-one] | < 4.00 | < 4.00 | < 4.00 |
| CSC[C@]1(CO)O[C@@H](n2cc(F)c(N)nc2=O)[C@@H](F)[C@@H]1O [Compound 135, 4-amino-5-fluoro-1-[(2R,3S,4R,5R)-3-fluoro-4-hydroxy-5-(hydroxymethyl)-5-[(methylsulfanyl)methyl]oxolan-2-yl] pyrimidin-2-one] | 5.00 to 6.00 | 4.30 to 5.00 | 4.30 to 5.00 |
| O=c1[nH]c(=O)n([C@@H]2O[C@@](CO)(CCl)[C@@H](O)[C@@H]2F)cc1F [Compound 163, 1-[(2R,3S,4R,5R)-5-(chloromethyl)-3-fluoro-4-hydroxy-5-(hydroxymethyl)oxolan-2-yl]-5-fluoro-3H-pyrimidine-2,4-dione] | < 4.00 | < 4.00 | < 4.00 |
| Nc1nc(F)nc2c1ncn2[C@H]1C[C@H](O)C(CO)(CO)O1 [Compound 10, ((3S,5R)-5-(6-amino-2-fluoro-9H-purin-9-yl)-3-hydroxytetrahydrofuran-2,2-diyl) dimethanol] | 5.00 to 6.00 | 5.00 to 6.00 | 4.30 to 5.00 |
| Nc1nc(=O)n([C@H]2C[C@H](O)[C@](CO)(CCl)O2)cc1C(F)(F)F [Compound 71, 4-amino-1-((2R,4S,5R)-5-(chloromethyl)-4-hydroxy-5-(hydroxymethyl)tetrahydrofuran-2-yl)-5-(trifluoromethyl)pyrimidin-2(1H)-one] | < 4.00 | < 4.00 | < 4.00 |
| N#C[C@]1(CO)O[C@@H](n2cc(F)c(N)nc2=O)[C@@H](F)[C@@H]1O [Compound 166] | < 4.00 | < 4.00 | < 4.00 |
| Nc1nc(F)nc2c1ncn2[C@@H]1O[C@@](CO)(CF)[C@@H](O)[C@@H]1F [Compound 84] | 4.30 to 5.00 | 4.00 to 4.30 | 4.30 to 5.00 |
| Nc1ccn([C@H]2C[C@@H](O)[C@](CO)(CCl)O2)c(=O)n1 [Compound 59, 4-amino-1-[(2R,4R,5R)-5-(chloromethyl)-4-hydroxy-5-(hydroxymethyl)oxolan-2-yl] pyrimidin-2-one] | < 4.00 | < 4.00 | < 4.00 |
| [N-]=[N+]=N[C@]1(CO)O[C@@H](n2ccc(N)nc2=O)C[C@@H]1O [Compound 49, 4-amino-1-((2R,4S,5R)-5-azido-4-hydroxy-5-(hydroxymethyl)tetrahydro-furan-2-yl)pyrimidin-2(1H)-one] | > 6.00 | > 6.00 | > 6.00 |
| Nc1ncnn2c([C@H]3C[C@H](O)[C@](CO)(CF)O3)ccc12 [Compound 79, (2R,3S,5R)-5-(4-aminopyrrolo[2,1-f] [1,2,4]triazin-7-yl)-2-(fluoromethyl)-2-(hydroxymethyl) tetrahydrofuran-3-ol] | < 4.00 | < 4.00 | < 4.00 |
| NC[C@]1(CO)O[C@@H](n2cc(F)c(N)nc2=O)[C@@H](F)[C@@H]1O [Compound 139, 4-amino-1-[(2R,3S,4R,5R)-5-(aminomethyl)-3-fluoro-4-hydroxy-5-(hydroxymethyl)oxolan-2-yl]-5-fluoropyrimidin-2-one] | < 4.00 | < 4.00 | < 4.00 |
